Test results published in patent US8658787B2, “Galacto-rhamnogalacturonate compositions for the treatment of non-alcoholic steatohepatitis and non-alcoholic fatty liver disease” (Galectin Therapeutics Inc., priority 2011, dated 2014).

Tested on: STAM mice
Test: STAM mouse model of steatohepatitis (diabetes induced, high fat diet), treatment with GR-MD-02
Format: in vivo
Procedure: The experimental model used in this example is the mouse in which diabetes was induced and a high fat diet was administered, a model that has been called STAM mice. […] This is a proven model in which the mice consistently develop NASH with hepatocyte fat accumulation, evidence of hepatocyte toxicity, portal and lobular inflammatory infiltrates, peri-sinusoidal fibrosis, advanced fibrosis with nodule formation, cirrhosis, and ultimately hepatocellular carcinoma in a certain percentage of animals.
The progression of disease appearance is fatty liver (FL) by five weeks of age, steatohepatitis (NASH) by 7 weeks of age, fibrosis (Fib) by 9 weeks of age, nodule formation (N) by 13 weeks of age, and some animals developing hepatocellular carcinoma (HC) by 16 weeks of age (FIG. 1).
GR-MD-02, produced as described in Example 1, was given in a dose of 60 mg/kg twice weekly intravenously for four (4) weeks at the each of the starting times indicated. Early treatment was given for weeks 6 through 9 and late therapy was given for weeks 9 through 12.
The NFLD activity score was used to evaluate the severity of liver disease on histological sections of liver and gives points for three aspects of NASH pathology including, steatosis (0 (<5%), 1 (5-33%), 2 (33-66%), or 3 (>66%)), hepatocyte ballooning (0 (none), 1, (few), or […]), and lobular inflammation (0 (no foci), 1 (<2 foci/200× field), 2 (2-4 foci/200× field), or 3 (>4 foci/200× field)). The total number of points is the NFLD activity score.

galacto-rhamnogalacturonate [GR-MD-02]
whole blood glucose (60 mg/kg twice weekly i.v., early or late treatment schedule, vs vehicle control): no statistical differences | changes in body weight (60 mg/kg twice weekly intravenously, early (weeks 6-9) and late (weeks 9-12) treatment, vs vehicle (normal saline)): no difference in body weight | Sirius red staining of liver histology (early (6-9 weeks) and late (9-12 weeks) treatment groups, vs vehicle control): marked reduction in Sirius red staining | collagen percent area (Sirius red, computer assisted morphometric analysis) (early and late treatment groups and both combined, vs vehicle): markedly statistically significantly reduced | NFLD activity score on liver histology (average) (early treatment group (weeks 6-9), 60 mg/kg twice weekly i.v., vehicle average 5, p<0.01 vs vehicle): 3 | alpha-Smooth Muscle Actin in liver tissue (immunohistochemical staining, digital morphometry) (marker for activated stellate cells, vs vehicle): marked reduction in alpha-Smooth Muscle Actin | galectin-3 in liver tissue (immunohistochemical staining, digital morphometry) (vs vehicle treated animals): marked reduction of galectin-3
